# Legend:
# [1] = Dose escalation test on animal survival; assay type: in vivo, mice
# Experimental: Dose escalation test on animal survival following local subcutaneous injection of the 1-month BTZ nanoparticle (BTZ NP) formulation in comparison with free BTZ injection via intratumor injection.
# The recommended dose in patients is 1.3 mg/m^2. This dose is also the maximum tolerated dose in patients. […] One of the essential features of BTZ-NP is the ability to release active BTZ gradually. The ability of BTZ-NP to release BTZ slowly by subcutaneous injections was evaluated with increasing doses of BTZ-NP. As shown, a dose of 108 mg/m^2 could be injected without any death in rodents. This dose is approximately 80-fold higher than the dose of the free drug that is sufficient to kill rodents.
# [2] = system: primary patient-derived cancer organoid (PDO) cultures from patients with liver cancers; experiment: FDA-approved cancer drugs tested across patient-derived cancer organoid (PDO) cultures; assay type: cell-based, human
# Experimental: Thirty-seven primary patient-derived cancer organoid (PDO) cultures have been established from patients with liver cancers (including hepatocellular cancer and cholangiocarcinoma). Food and Drug Administration (FDA)-approved cancer drugs (irrespective of FDA indication) were tested across all 37 PDO cultures.
# [3] = cited from earlier work
# [4] = system: patient derived xenograft (PDX) model established from a human primary HCC; experiment: In vivo treatment of patient derived xenograft (PDX) mouse model of liver cancer; set-up: species or system NSG mice
# Experimental: In vivo therapeutic effect of BTZ-loaded nanoparticles. The therapeutic effect of BTZ-loaded nanoparticles was assessed using patient derived xenograft (PDX) model. Briefly, fresh human tumor tissue was harvested from HCC patients, then cut in small pieces (3^3 mm^3) and implanted subcutaneously in the right flank of NSG mice. Once tumors grew, a similar process (harvesting tumors from mice, mincing and inserting in new mice) was implemented. Mice at the 5th passage of PDX were utilized in this experiment. After implantation subcutaneously, the tumor is allowed to grow to approximately 1,000 mm^3. Next, mice were randomized to blank nanoparticles and BTZ-loaded nanoparticles with an equivalence of 2.2 mg/kg BTZ. The tumor sizes of mice in different groups were measured through two weeks and were taken as the reflection of therapeutic effect of different formulations.
compound,measurement,setting,value
"CC(C)C[C@H](NC(=O)[C@H](Cc1ccccc1)NC(=O)c1cnccn1)B(O)O [free BTZ, bortezomib]",cause of death,"[1]; 1 mg/kg free BTZ, intra-tumor injection",liver failure
same,Survival,"[1]; 1 mg/kg free BTZ, single intra-tumor injection, 12.5 μg/dose, 1.5 mg/m^2",0/5
same,lethal dose in rodent model,[1]; intratumoral injection,1.5 mg/m^2
same,effectiveness across PDO lines,"[2]; 37 PDO cultures, hepatocellular cancer and cholangiocarcinoma",highly effective across all tested PDO lines
same,effectiveness compared with currently approved FDA drugs for unresectable liver cancers,[2]; across all 37 PDO lines,more effective than any of the currently approved FDA drugs
same,recommended dose / maximum tolerated dose in patients,[3],1.3 mg/m^2
same,animal death due to toxicity,[4]; high dose 0.8 mg/kg free BTZ,died 1 day after injection
same,efficacy in PDX model of liver cancer,"[4]; mouse, in vivo",effective

# From patent publication US20230074885A1, “BORTEZOMIB-LOADED NANOPARTICLES” (The Johns Hopkins University, priority 2020, published 2023)
